The target of one series is PHDs. As to the kind of experiment: ODD-luciferase reporter assay (Dual-Glo) for PHDs inhibition. The following applies: C2C12 myoblasts transfected with ODD-luciferase-pcDNA3; 24 hours at 50, 100, 250, 500, 1000 µM, normoxic conditions; linear regression. In general terms: In a reporter assay the amount or activity of a reporter protein is the signal.
Another series concerns HIF-1α. Briefly: Western blot of HIF-1α nuclear translocation. It is filed as cell-based, murine. The following applies: PLG at EC50 (250 µM) for 24 hours, vs untreated control; Lamin A/C housekeeper. On the procedure:
(§1) For nuclei separation, 5 x 10^6 cells were collected after enzymatic digestion with trypsin (Merck), centrifuged at the maximum speed, resuspended in 400 µl of Buffer A (10 mM KCl, 0.1 mM EDTA, 1 mM DTT, 10 mM Hepes, pH 7.9), containing protease and phosphatase inhibitors cocktail (Merck), and incubated on ice for 20 minutes. Then, 10% NP40 was added to the cell suspension, mixed for 40 seconds, and centrifuged 40 seconds at the maximum speed. After centrifugation, the pellet was resuspended in 80 µl of Buffer C (0.4M NaCl, 1 mM EDTA, 1 mM DTT, 20 mM Hepes, pH 7.9), containing a protease and phosphatase inhibitors cocktail, and then mixed for 30 minutes at 4°C at the maximum speed. Finally, the nuclear suspension was centrifuged for 5 minutes at 4°C at the maximum speed, collected and transferred in a new tube. The total protein content was determined with the BCA Protein Assay Kit (Pierce), according to the manufacturer's instructions.
(§2) Proteins were denaturated by boiling for 10 minutes in sample buffer (0.6 g/100 mL Tris, 2 g/100 mL SDS, 10% glycerol, 1% 2-mercaptoethanol, pH 6.8) and loaded into 10% SDS-PAGE gel, then transferred onto a nitrocellulose membrane (Trans-blot, Bio-Rad Laboratories) by electroblotting. Nitrocellulose membranes were incubated with a blocking solution containing 5% (w/v) non-fat dry milk or 5% (w/v) BSA (Merck) in Tris-buffer saline with 0.1% Tween® 20 (TBS-T) for 1 hour. […] Membranes were washed three times for 10 minutes with TBS-T, and then incubated with the appropriate anti-mouse, anti-rabbit, or anti-goat HRP-conjugated secondary antibodies (Dako, Agilent Technologies), 1:2000 dilution, for 1 hour at room temperature. After three washes for 10 minutes with TBS-T, the immunoreactive bands were visualized using the enhanced chemiluminescence detection kit reagents (ECL Advance, GeHealthcare), according to the manufacturer's instructions.
as §1, with “For total proteins extraction, 7.5 x 10^4 cells were seeded and harvested at 7th days of skeletal muscle differentiation, as previously described. Cells were collected after enzymatic digestion with trypsin (Merck), lysed by sonication and centrifuged at 800 xg for 10 minutes. Supernatant was used to determine total protein content with the BCA Protein Assay Kit (Pierce), according to the manufacturer's instructions. For” for “For”, “(0.4 M” for “(0.4M”
(In general: Immunoblotting shows a protein as a band on a membrane.)

A further series relates to VEGF. As to the kind of experiment: qPCR of HIF-1α target gene VEGF. It is filed as cell-based, murine. As to conditions: PLG at EC50 (250 µM), 24 hours. As for the experimental part:
(§3) Total RNA was isolated using ReliaPrep™ RNA Miniprep Systems (Promega), and reverse transcribed to cDNA using the iScript cDNA synthesis kit (BioRad), according to the Manufacturer's instructions. Real-Time Quantitative PCR was performed on 10 ng of cDNA template, 0.2 µM primers, and GoTaq® qPCR Master Mix (Promega) in 20 µl final volume using a StepOnePlus® Real-Time PCR System (Applied Biosystem). […] RPL13 was used as the housekeeping gene. The amplification program consisted in an initial denaturation at 95°C for 3 minutes, followed by 40 cycles of 5 seconds each at 95°C and 30 seconds at 57°C; WNT7a was amplified at 53°C. Relative quantification of target genes was performed in triplicate and calculated by the equation 2^-ΔΔCt.
as §3, with “ReliaPrepTM” for “ReliaPrep™”, “2-ΔΔCt.” for “2^-ΔΔCt.”
For orientation: In qPCR the cycle at which signal appears reflects the starting amount.

The next series has as its system murine myoblasts C2C12. As to the kind of experiment: Skeletal muscle differentiation, MHC immunofluorescence (fusion and differentiation indexes). It is filed as cell-based. As to conditions: 250 µM PLG 24 hours in GM, then 7 days in DM without inhibitor; vs untreated controls. On the procedure: (§4) The DM was changed every day for 7 days. Cells were analyzed at 24 hours post-treatment (PT), at 3rd and 7th days of skeletal muscle differentiation.
After differentiation for 7 days in DM, cells were washed with phosphate saline buffer (PBS) and fixed for 15 minutes in 4% (w/v) paraformaldehyde at room temperature. For permeabilization and blocking, cells were incubated for 1 hour in the presence of PBS 0.1% (v/v) Triton X-100 (TX-100, Merck) and 5% (w/v) FBS (Merck) at room temperature. […] After incubation, cells were washed three times in PBS and incubated for 1 hour at room temperature with an anti-mouse FITC-conjugated secondary antibody (Jackson ImmunoResearch), diluted 1:200. […] Myogenesis was assessed by measuring the myotube area and the number of myonuclei per myotube using a fluorescent microscope (Olympus TH4-200) equipped with an acquisition camera. To quantify both differentiation and fusion indexes, ten fields were chosen randomly and, for each field, a minimum of one hundred myosin-positive myotubes with more than two myonuclei were measured using the ImageJ v1.49o software. The area and the number of nuclei per myotube was the mean of ten measurements averaged from three different experiments.
as §4

The subject of series [1] is C2C12 murine myoblasts. As to the kind of experiment: CellTox Cytotoxicity Assay. The following applies: at EC50 concentration (250 µM), 24 hours.
Method: To assess PHDs inhibitors cytotoxicity, 5 x 10^3 C2C12 murine myoblasts were seeded in a 96-well plate.
Series [2] deals with C2C12 murine myoblasts. Briefly: RealTime-Glo MT Cell Viability Assay. The following applies: at EC50 concentration (250 µM), 24 hours.
Method: RealTime-Glo™ kits MT Cell Viability Assay (Promega) was used to investigate the effects of IOX2 and FG-4592 treatment on cell viability. Briefly, 5 x 10^3 C2C12 murine myoblasts were seeded in a 96 well plate and incubated for 24 hours (T0) with MT Cell Viability Substrate (1:1000 dilution) and NanoLuc® Enzyme (1:1000 dilution). Then, 50 µM IOX2 or 40 µM FG-4592 were added to the cell cultures and incubated for other 24 hours before luminescence analysis.
RealTime-Glo™ kits MT Cell Viability Assay (Promega) was used to investigate the effects of PLG treatment on cell viability. Briefly, 5 x 10^3 C2C12 murine myoblasts were seeded in a 96 well plate and incubated for 24 hours (T0) with MT Cell Viability Substrate (1:1000 dilution) and NanoLuc® Enzyme (1:1000 dilution). Then, each PLG inhibitor was added at its EC50 to the cell cultures and incubated for other 24 hours before luminescence analysis.
The test system of the next series is MyoD. As to the kind of experiment: Western blot of MyoD nuclear localization. It is filed as cell-based, murine. The following applies: 250 µM PLG for 24 hours. As for the experimental part: as §1, §2
as §1, with “For total proteins extraction, 7.5 x 10^4 cells were seeded and harvested at 7th days of skeletal muscle differentiation, as previously described. Cells were collected after enzymatic digestion with trypsin (Merck), lysed by sonication and centrifuged at 800 xg for 10 minutes. Supernatant was used to determine total protein content with the BCA Protein Assay Kit (Pierce), according to the manufacturer's instructions. For” for “For”, “(0.4 M” for “(0.4M”

The next series deals with Myogenin. As to the kind of experiment: qPCR of Myogenin during differentiation. It is filed as cell-based, murine. As to conditions: day 3 of differentiation, 250 µM PLG pre-treated myoblasts. On the procedure:
as §3
as §3, with “ReliaPrepTM” for “ReliaPrep™”, “2-ΔΔCt.” for “2^-ΔΔCt.”

In a further series the test system is PHD2. As to the kind of experiment: qPCR of HIF-1α target gene PHD2. It is filed as cell-based, murine. The following applies: PLG at EC50 (250 µM), 24 hours. As for the experimental part:
as §3
as §3, with “ReliaPrepTM” for “ReliaPrep™”, “2-ΔΔCt.” for “2^-ΔΔCt.”

For another series, the system named is MHC. Briefly: qPCR of MHC during differentiation. It is filed as cell-based, murine. As to conditions: day 7 of differentiation, 250 µM PLG pre-treated myoblasts. On the procedure: as §3
as §3, with “ReliaPrepTM” for “ReliaPrep™”, “2-ΔΔCt.” for “2^-ΔΔCt.”

Method for PHDs: The IC50 was calculated using a Dual-Glo® Luciferase Assay System kit (Promega) that allows a high-throughput analysis of mammalian cells containing the Firefly (Luciferase-pcDNA3, ODD-Luciferase-pcDNA3) and Renilla (pRL-CMV) luciferase reporters. Briefly, 5 x 10^3 cells per well were seeded in a 96-well plate, and then transfected for 24 hours with a Luciferase-pcDNA3 or an ODD-Luciferase-pcDNA3 (80 ng), containing the firefly gene reporter. A co-transfection with pRL-CMV (8 ng), containing the renilla gene reporter, was performed as an internal control, according to the ViaFect Transfection Reagent® protocol (Promega). After transfection, cells were treated with 10, 25, 50, and 100 µM IOX2 or FG-4592 (R oxadustat) for 24 hours, and then an equal volume of Dual-Glo® Luciferase Reagent was added to each well, incubated at room temperature for 30 minutes, and then analyzed with a Varioskan™ LUX Multimode Microplate Reader (ThermoFisher Scientific). Then, an equal volume of Dual-Glo® Stop & Glo® Reagent was added to each well in order to quench the luminescence from the firefly reaction and to provide the substrate for the renilla luciferase. The mixture was incubated for 30 minutes before analysis. The IC50 values were calculated by linear regression.
To this purpose, the IC50 of both compounds was determined by transiently co-transfecting C2C12 myoblasts with the ODD-luciferase-pcDNA3 plasmid, containing the Oxygen Dependent Domain (ODD) of HIF-1α, and with the pRL-CMV plasmid, as the internal control (Figure 4, panel A). Then, transfected cells were treated for 24 hours with IOX2 or FG-4592 at different concentrations (10, 25, 50, and 100 µM) under normoxic conditions, and the emitted luminescence was collated to untreated controls.
The EC50 was calculated using a Dual-Glo® Luciferase Assay System kit (Promega) that allows a high-throughput analysis of mammalian cells containing the Firefly (Luciferase-pcDNA3, ODD-Luciferase-pcDNA3) and Renilla (pRL-CMV) luciferase reporters. Briefly, 5 x 10^3 cells per well were seeded in a 96-well plate, and then transfected for 24 hours with a Luciferase-pcDNA3 or an ODD-Luciferase-pcDNA3 (80 ng), containing the firefly gene reporter. A co-transfection with pRL-CMV (8 ng), containing the renilla gene reporter, was performed as an internal control, according to the ViaFect Transfection Reagent® protocol (Promega). […] Then, an equal volume of Dual-Glo® Stop & Glo® Reagent was added to each well in order to quench the luminescence from the firefly reaction and to provide the substrate for the renilla luciferase. The mixture was incubated for 30 minutes before analysis. The EC50 values were calculated by linear regression.
The EC50 of each compound was determined by transiently co-transfecting C2C12 myoblasts with the ODD-luciferase-pcDNA3 plasmid, containing the Oxygen Dependent Domain (ODD) of HIF-1α, and with the pRL-CMV plasmid, as the internal control (Figure 12, panel A).

As to `O=C(O)CCC(=O)NNC(=O)c1cc2c(cn1)[nH]c1ccccc12` [PLG6], the EC50 result at PHDs is “undetectable”.
Same read-out and setting: with `CN(C)c1ccnc(C(=O)NNC(=O)CCC(=O)O)c1` [PLG19] the entry was “undetectable”.
On to `COC(=O)CCC(=O)NNC(=O)c1cc(N(C)C)ccn1` [PLG23], for which the EC50 entry on PHDs is “undetectable”.
Regarding `COC(=O)CCC(=O)NNC(=O)c1cc2c(cn1)[nH]c1ccccc12` [PLG8], the “HIF-1α nuclear translocation, protein increase” value in the series with HIF-1α was determined as 1.5 fold. The “enhancement of VEGF” value in the series on VEGF is listed as 1.6 fold. Moreover, in the series on murine myoblasts C2C12, the fusion index entry is listed as “no significant changes” and the “increase in the differentiation index” value came to 1.15 fold. In addition, the Cell toxicity entry in the series with C2C12 murine myoblasts [1] is listed as “not due to a toxic effect”. For the same compound, the “decrease in the proliferation rate” value in the series with C2C12 murine myoblasts [2] came out at 60%. Moreover, the “increase of the nuclear localization of MyoD” value (from here on “increase … of MyoD”) with MyoD was determined as 1.4 fold. Further, the EC50 in the series with PHDs is 250 µM. The “increase of Myogenin” value with Myogenin stood at 1.4 fold. The “increase of PHD2” value with PHD2 came to 1.8 fold. In addition, in the series on MHC, the “enhancement of MHC” value amounted to 1.5 fold.
Consider `COC(=O)CCC(=O)NNC(=O)c1cc2ccccc2cn1` [PLG11], for which the “HIF-1α nuclear translocation, protein increase” value in the series on HIF-1α turned out to be 1.5 fold. Besides, the “enhancement of VEGF” value in the series with VEGF was found to be 1.2 fold. Further, in the series with murine myoblasts C2C12, the fusion index entry is reported as “no significant changes” and the “increase in the differentiation index” value stood at 1.2 fold. Further, in the series on C2C12 murine myoblasts [1], the Cell toxicity entry is listed as “not due to a toxic effect”. For the same compound, in the series on C2C12 murine myoblasts [2], the “decrease in the proliferation rate” value amounted to 17%. Moreover, the “increase … of MyoD” value in the series on MyoD worked out at 1.3 fold. The same compound displayed an EC50 with PHDs of 250 µM. Further, the “increase of Myogenin” value with Myogenin turned out to be 1.4 fold. Further, the “increase of PHD2” value in the series with PHD2 is reported as 1.3 fold. Further, the “enhancement of MHC” value in the series on MHC is reported as 1.4 fold.
Take `O=C(O)CCC(=O)NNC(=O)c1cc2ccccc2cn1` [PLG2]: the “HIF-1α nuclear translocation, protein increase” value with HIF-1α was 1.3 fold. Moreover, in the series with VEGF, the “enhancement of VEGF” value is 1.1 fold. Also, in the series with murine myoblasts C2C12, the fusion index result is recorded as “no significant changes” and the “increase in the differentiation index” value came out at 1.15 fold. The Cell toxicity result with C2C12 murine myoblasts [1] is given as “not due to a toxic effect”. In addition, the “decrease in the proliferation rate” value in the series on C2C12 murine myoblasts [2] stood at 20%. The “increase … of MyoD” value in the series with MyoD was 1.2 fold. This compound also gave an EC50 with PHDs of 250 µM. Also, the “increase of Myogenin” value in the series with Myogenin was determined as 1.2 fold. Also, the “increase of PHD2” value with PHD2 is “no significant changes”. For the same compound, the “enhancement of MHC” value with MHC was found to be 1.3 fold.

For orientation: EC50 means the concentration that produces a half-maximal response. The low end stands for higher potency in that assay, the high end for lower potency in that assay.
